Test results as given in patent US20200392158A1, “INHIBITORS OF LEUCINE RICH REPEAT KINASE 2” (GLAXOSMITHKLINE INTELLECTUAL PROPERTY DEVELOPMENT LIMITED, priority 2017, published 2020).

Legend:
[1] = target: T1, full length G2019 human LRRK2 (Homo sapiens, UniProt Q5S007, R50H); assay: Full length G2019 human LRRK2 inhibition mass spectrometry assay; type: biochemical; details: LRRKtide to phospho-LRRKtide conversion, RapidFire MS, 2 mM ATP
T1 construct: made in house; host or cells: HEK293 6E cells transduced with BacMam virus (virus generated in Sf9 cells)
T1 sequence (Q5S007 with tags, fused parts or gaps R50H): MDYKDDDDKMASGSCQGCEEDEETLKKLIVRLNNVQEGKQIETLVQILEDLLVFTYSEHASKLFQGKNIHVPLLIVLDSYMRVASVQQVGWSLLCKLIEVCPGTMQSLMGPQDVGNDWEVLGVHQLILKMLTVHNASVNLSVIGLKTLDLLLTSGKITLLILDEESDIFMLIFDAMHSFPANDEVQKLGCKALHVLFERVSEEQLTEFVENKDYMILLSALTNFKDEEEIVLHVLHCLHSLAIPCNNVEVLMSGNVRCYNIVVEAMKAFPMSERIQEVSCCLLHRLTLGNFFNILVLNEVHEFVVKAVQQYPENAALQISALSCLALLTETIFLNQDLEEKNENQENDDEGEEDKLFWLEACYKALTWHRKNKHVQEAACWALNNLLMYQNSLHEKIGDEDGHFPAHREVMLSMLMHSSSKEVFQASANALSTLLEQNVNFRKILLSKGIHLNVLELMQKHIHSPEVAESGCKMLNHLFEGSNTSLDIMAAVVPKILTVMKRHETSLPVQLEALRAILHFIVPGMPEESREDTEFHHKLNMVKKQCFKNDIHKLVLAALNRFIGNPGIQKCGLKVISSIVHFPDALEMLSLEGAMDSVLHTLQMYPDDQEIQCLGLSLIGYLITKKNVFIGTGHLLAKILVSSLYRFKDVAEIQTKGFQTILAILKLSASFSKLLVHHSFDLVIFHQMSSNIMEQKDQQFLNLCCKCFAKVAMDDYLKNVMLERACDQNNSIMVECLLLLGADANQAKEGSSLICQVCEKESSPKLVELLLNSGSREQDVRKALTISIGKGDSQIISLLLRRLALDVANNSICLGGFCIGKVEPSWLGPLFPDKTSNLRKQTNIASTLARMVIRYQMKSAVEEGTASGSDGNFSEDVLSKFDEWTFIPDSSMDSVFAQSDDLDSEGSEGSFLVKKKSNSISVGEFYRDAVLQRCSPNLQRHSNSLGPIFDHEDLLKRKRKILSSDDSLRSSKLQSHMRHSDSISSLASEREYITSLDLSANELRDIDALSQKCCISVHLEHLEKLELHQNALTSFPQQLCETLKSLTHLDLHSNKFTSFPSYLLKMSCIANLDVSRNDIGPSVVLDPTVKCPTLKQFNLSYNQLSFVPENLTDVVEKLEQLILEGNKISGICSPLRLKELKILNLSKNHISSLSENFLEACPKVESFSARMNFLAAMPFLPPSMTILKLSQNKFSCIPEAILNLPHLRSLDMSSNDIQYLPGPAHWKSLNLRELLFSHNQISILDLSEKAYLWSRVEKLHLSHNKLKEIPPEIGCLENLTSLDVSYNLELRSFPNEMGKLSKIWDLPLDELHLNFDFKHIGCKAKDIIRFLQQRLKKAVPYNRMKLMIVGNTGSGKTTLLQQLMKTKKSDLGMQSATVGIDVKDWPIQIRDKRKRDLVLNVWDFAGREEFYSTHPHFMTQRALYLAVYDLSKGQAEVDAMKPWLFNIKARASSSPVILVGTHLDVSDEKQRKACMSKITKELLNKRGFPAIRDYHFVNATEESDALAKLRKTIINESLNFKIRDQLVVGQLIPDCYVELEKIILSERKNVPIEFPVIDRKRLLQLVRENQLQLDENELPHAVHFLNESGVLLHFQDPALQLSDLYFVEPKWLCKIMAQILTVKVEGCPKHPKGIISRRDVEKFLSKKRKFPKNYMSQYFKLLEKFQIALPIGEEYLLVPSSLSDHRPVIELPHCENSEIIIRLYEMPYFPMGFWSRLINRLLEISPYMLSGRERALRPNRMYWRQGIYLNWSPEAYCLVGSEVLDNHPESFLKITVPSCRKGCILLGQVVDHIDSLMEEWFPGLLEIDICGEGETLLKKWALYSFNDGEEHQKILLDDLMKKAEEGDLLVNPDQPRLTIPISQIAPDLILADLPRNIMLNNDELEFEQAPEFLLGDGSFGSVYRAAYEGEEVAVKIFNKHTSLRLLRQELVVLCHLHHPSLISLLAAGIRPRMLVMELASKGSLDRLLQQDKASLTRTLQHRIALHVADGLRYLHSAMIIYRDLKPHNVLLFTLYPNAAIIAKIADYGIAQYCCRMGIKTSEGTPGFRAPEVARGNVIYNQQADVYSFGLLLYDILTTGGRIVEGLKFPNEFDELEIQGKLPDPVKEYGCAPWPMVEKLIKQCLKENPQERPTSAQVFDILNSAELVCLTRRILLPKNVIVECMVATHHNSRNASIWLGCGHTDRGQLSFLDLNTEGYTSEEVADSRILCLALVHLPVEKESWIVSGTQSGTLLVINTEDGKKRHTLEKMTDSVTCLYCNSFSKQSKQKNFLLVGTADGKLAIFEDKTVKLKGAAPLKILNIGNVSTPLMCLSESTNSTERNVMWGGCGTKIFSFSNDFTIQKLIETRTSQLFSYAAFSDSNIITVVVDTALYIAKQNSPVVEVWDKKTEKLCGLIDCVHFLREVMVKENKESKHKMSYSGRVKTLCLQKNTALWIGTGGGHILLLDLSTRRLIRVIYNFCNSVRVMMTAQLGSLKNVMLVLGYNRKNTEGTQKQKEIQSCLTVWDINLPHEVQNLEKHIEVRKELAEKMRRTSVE
Method in brief: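 Inhibition taken as reduced LRRKtide phosphorylation, quantified by RapidFire-coupled triple-quadrupole MS as product/(product+substrate) peak area. Reaction: 2 mM ATP, 25 μM peptide, ~25 nM full-length G2019 Flag-LRRK2, Hepes pH 7.2 buffer, room temperature for 1 h. 11-point 1-in-4 dilutions from 100 μM; logistic fit gives IC50, reported as pIC50.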

[2] = target: T2, LRRK2 kinase in SH-SY5Y cells over-expressing recombinant full length LRRK2 (Homo sapiens, UniProt Q5S007); assay: Recombinant cellular LRRK2 AlphaScreen assay (LRRK2 Ser935 phosphorylation); type: cell-based; details: 60 min
T2 construct: A BacMam virus expressing full length recombinant LRRK2 was purchased from Invitrogen; host or cells: SH-SY5Y human neuroblastoma cells transduced with BacMam LRRK2 virus
T2 sequence (Q5S007 whole entry): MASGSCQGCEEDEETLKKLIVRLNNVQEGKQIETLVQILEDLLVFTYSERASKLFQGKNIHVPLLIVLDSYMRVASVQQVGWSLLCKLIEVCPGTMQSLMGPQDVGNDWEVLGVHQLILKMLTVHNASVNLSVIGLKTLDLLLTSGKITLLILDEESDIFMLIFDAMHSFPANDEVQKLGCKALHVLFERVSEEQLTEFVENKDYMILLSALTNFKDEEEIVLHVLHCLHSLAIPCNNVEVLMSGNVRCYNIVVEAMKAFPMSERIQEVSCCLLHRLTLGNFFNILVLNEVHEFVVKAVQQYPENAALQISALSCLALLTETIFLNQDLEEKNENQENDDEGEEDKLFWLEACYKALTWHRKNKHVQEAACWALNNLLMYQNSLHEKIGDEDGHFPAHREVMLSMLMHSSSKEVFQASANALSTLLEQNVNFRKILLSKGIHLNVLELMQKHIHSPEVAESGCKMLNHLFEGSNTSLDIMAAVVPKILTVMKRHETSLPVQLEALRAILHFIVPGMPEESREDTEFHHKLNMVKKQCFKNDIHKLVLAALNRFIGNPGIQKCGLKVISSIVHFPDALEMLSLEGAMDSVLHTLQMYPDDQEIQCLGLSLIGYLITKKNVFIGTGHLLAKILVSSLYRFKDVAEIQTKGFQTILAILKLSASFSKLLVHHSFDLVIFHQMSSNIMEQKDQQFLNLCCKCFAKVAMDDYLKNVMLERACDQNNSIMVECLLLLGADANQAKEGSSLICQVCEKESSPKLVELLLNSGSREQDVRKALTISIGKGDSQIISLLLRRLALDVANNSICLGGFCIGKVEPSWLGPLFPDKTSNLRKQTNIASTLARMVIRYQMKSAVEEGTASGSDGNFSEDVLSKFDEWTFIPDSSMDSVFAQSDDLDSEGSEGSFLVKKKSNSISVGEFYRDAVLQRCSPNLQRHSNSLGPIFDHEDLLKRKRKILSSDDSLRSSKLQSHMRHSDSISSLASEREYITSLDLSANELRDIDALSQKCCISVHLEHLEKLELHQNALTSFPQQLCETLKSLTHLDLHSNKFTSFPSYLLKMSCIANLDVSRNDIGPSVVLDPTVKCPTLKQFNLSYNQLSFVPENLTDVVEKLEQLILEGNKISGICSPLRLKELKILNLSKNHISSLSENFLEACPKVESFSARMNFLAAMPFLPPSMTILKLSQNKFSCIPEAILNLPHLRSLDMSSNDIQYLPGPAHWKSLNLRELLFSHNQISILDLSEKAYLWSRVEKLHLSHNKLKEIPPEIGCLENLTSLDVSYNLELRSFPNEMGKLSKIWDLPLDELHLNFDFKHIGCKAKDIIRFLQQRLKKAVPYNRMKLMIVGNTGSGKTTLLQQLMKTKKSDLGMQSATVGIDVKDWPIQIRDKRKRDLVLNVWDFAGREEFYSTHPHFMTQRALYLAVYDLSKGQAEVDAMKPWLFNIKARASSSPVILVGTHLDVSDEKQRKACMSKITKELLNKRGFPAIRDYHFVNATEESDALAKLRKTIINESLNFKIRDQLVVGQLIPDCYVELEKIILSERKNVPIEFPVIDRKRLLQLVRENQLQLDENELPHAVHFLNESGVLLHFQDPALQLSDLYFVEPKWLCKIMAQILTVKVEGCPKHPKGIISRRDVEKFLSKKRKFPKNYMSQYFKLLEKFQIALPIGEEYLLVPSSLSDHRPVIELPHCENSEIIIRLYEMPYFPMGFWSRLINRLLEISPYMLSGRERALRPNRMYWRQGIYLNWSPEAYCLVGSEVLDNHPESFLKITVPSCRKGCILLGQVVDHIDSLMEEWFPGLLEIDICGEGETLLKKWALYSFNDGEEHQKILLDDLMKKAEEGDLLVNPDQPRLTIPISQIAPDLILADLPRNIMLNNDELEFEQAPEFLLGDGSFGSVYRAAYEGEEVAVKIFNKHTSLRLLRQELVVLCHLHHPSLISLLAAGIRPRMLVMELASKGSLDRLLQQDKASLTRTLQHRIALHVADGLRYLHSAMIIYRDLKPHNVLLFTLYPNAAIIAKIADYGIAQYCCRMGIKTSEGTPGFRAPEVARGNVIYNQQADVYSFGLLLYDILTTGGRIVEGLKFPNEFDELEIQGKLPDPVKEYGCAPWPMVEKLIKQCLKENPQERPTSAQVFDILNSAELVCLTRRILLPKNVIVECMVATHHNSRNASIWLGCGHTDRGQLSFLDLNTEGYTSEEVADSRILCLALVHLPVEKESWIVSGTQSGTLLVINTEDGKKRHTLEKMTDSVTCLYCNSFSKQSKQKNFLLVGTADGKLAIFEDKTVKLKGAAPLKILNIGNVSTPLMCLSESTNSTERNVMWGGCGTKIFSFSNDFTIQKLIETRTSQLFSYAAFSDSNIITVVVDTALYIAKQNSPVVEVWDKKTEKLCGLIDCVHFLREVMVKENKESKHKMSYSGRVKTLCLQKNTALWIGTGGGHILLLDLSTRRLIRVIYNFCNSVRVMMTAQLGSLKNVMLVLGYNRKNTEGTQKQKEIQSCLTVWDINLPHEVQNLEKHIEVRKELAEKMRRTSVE
Method in brief: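 Read-out is AlphaScreen of LRRK2 pSer935 over total LRRK2 in lysates of SH-SY5Y cells over-expressing full-length LRRK2 via BacMam (24 h transduction). Cells were exposed 60 min at 37 °C to an 11-point 1-in-4 dilution series starting at 10 uM; sigmoidal fit.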

Compound | IC50 [1] [nM] | IC50 [2] [nM]
Cc1c2c(nn1C1CCCOC1)OCC(C)CNc1nc(ncc1Cl)N2 (single isomer, unassigned) [E306, 14-Chloro-4,10-dimethyl-5-(oxan-3-yl)-8-oxa-2,5,6,12,16,17-hexaazatricyclo[11.3.1.0^3,7]heptadeca-1(16),3,6, 13(17),14-pentaene] | ≤ 100 | ≤ 100
COCC1CCOc2nn(C3CCOCC3F)c(C)c2Nc2ncc(Cl)c(n2)N1 (single isomer, unassigned) [E351, 14-Chloro-5-(3-fluorooxan-4-yl)-11-(methoxymethyl)-4-methyl-8-oxa-2,5,6,12,16,17-hexaazatricyclo [11.3. 1.0^3,7]heptadeca-1(16),3,6,13(17),14-pentaene] | ≤ 100 | ≤ 100
Cc1c2c(nn1C1CCC(N3CCOCC3)C1)OCCCNc1nc(ncc1Cl)N2 (single isomer, unassigned) [E369, 14-Chloro-4-methyl-5-[3-(morpholin-4-yl)cyclopentyl]-8-oxa-2,5,6,12,16,17-hexaazatricyclo[11.3.1.0^3,7] heptadeca-1(16),3,6,13(17),14-pentaene] | ≤ 100 | ≤ 100
Cc1c2c(nn1C1CN(C3COC3)CCC1F)OCC[C@@H](C)Nc1nc(ncc1Cl)N2 (single isomer, unassigned) [E403] | ≤ 100 | ≤ 100
Cc1c2c(nn1C1CCN(C3COC3)CC1(F)F)OCCCNc1nc(ncc1Cl)N2 (single isomer, unassigned) [E406, 14-Chloro-5-[3,3-difluoro-1-(oxetan-3-yl)piperidin-4-yl]-4-methyl-8-oxa-2,5,6,12,16,17-hexaazatricyclo[11.3.1.0^3,7]heptadeca-1(16),3,6,13(17),14-pentaene] | ≤ 100 | ≤ 100
Cc1c2c(nn1C1CCOCC1(F)F)OCCCNc1nc(ncc1Cl)N2 (single isomer, unassigned) [E415] | ≤ 100 | ≤ 100
Cc1c2c(nn1C1CCOCC1(C)C)OCC[C@@H](C)Nc1nc(ncc1Cl)N2 (single isomer, unassigned) [E422] | ≤ 100 | ≤ 100
C[C@@H]1CCOc2nn(C3CCN(C4COC4)CC3(F)F)c(Cl)c2Nc2ncc(Cl)c(n2)N1 (single isomer, unassigned) [E444] | ≤ 100 | ≤ 100
Cc1c2c(nn1CCN1C[C@@H]3C[C@H]1CO3)OCCCNc1nc(ncc1Cl)N2 (stereo in doubt) [E221, 14-Chloro-4-methyl-5-{2-[(1S,4S)-2-oxa-5-azabicyclo[2.2.1]heptan-5-yl]ethyl}-8-oxa-2,5,6,12,16,17-hexaazatricyclo [11.3.1.0^3,7]heptadeca-1(16),3,6,13(17),14-pentaene] | ≤ 100 | ≤ 100
Cc1c2c(nn1C1CC(N3CC4CC3CO4)C1)OCC[C@@H](C)Nc1nc(ncc1Cl)N2 (stereo in doubt) [E318, (11R)-14-Chloro-4,11-dimethyl-5-{3-[(1R,4R)-2-oxa-5-azabicyclo[2.2.1]heptan-5-yl]cyclobutyl}-8-oxa-2,5,6,12,16,17-hexaazatricyclo[11.3.1.0^3,7]heptadeca-1(16),3,6,13(17),14-pentaene] | ≤ 100 | ≤ 100
Cc1c2c(nn1C1CCOCC1)OCCCNc1nc(ncc1Cl)N2 [E1, 14-Chloro-4-methyl-5-(oxan-4-yl)-8-oxa-2,5,6,12,16,17-hexaazatricyclo [11.3.1.0^3,7]heptadeca-1(16),3,6,13(17),14-pentaene] | ≤ 100 | ≤ 100
Cc1c2c(nn1C1CCOCC1)OCCC(C)Nc1nc(ncc1Cl)N2 (centres unmarked) [E5, 14-Chloro-4,11-dimethyl-5-(oxan-4-yl)-8-oxa-2,5,6,12,16,17-hexaazatricyclo [11.3.1.0^3,7]heptadeca-1(16),3,6,13(17),14-pentaene] | ≤ 100 | ≤ 100
Cc1c2c(nn1C1CCOCC1)OCC[C@@H](C)Nc1nc(ncc1Cl)N2 [E6, (11R)-14-Chloro-4,11-dimethyl-5-(oxan-4-yl)-8-oxa-2,5,6,12,16,17-hexaazatricyclo [11.3.1.0^3,7]heptadeca-1(16),3,6,13(17),14-pentaene] | ≤ 100 | ≤ 100
Cc1c2c(nn1C1COC1)OCCCNc1nc(ncc1Cl)N2 [E12, 14-Chloro-4-methyl-5-(oxetan-3-yl)-8-oxa-2,5,6,12,16,17-hexaazatricyclo[11.3.1.0^3,7]heptadeca-1(16),3,6,13(17),14-pentaene] | ≤ 100 | ≤ 100
Clc1cnc2nc1NCCCOc1nn(C3CCOCC3)c(Cl)c1N2 [E13, 4,14-Dichloro-5-(oxan-4-yl)-8-oxa-2,5,6,12,16,17-hexaazatricyclo[11.3.1.0^3,7]heptadeca-1(16),3,6,13(17),14-pentaene] | ≤ 100 | ≤ 100
Cc1c2c(nn1C1CC(N3CCOCC3)C1)OCCCNc1nc(ncc1Cl)N2 (centres unmarked) [E45, 14-Chloro-4-methyl-5-[3-(morpholin-4-yl)cyclobutyl]-8-oxa-2,5,6,12,16,17-hexaaza tricyclo[11.3.1.0^3,7]heptadeca-1(16),3,6,13(17),14-pentaene] | ≤ 100 | ≤ 100
Cc1c2c(nn1[C@H]1CCOC1)OCC[C@@H](C)Nc1nc(ncc1Cl)N2 [E46, (11R)-14-chloro-4,11-dimethyl-5-[(3S)-oxolan-3-yl]-8-oxa-2,5,6,12,16,17-hexaaza tricyclo [11.3.1.0^3,7]heptadeca-1(16),3,6,13(17),14-pentaene] | ≤ 10000 | ≤ 100
Cc1c2c(nn1[C@@H]1CCOC1)OCC[C@@H](C)Nc1nc(ncc1Cl)N2 [E47, (11R)-14-chloro-4,11-dimethyl-5-[(3R)-oxolan-3-yl]-8-oxa-2,5,6,12,16,17-hexaaza tricyclo [11.3.1.0^3,7]heptadeca-1(16),3,6,13(17),14-pentaene] | ≤ 100 | ≤ 100
Cc1c2c(nn1C1COC1)OCC[C@@H](C)Nc1nc(ncc1Cl)N2 [E52, (11R)-14-chloro-4,11-dimethyl-5-(oxetan-3-yl)-8-oxa-2,5,6,12,16,17-hexaazatricyclo [11.3.1.0^3,7]heptadeca-1(16),3,6,13(17),14-pentaene] | ≤ 100 | ≤ 100
Cc1c2c(nn1C1CCN(C3COC3)CC1)OCC[C@@H](C)Nc1nc(ncc1Cl)N2 [E65, (11R)-14-chloro-4,11-dimethyl-5-[1-(oxetan-3-yl)piperidin-4-yl]-8-oxa-2,5,6,12,16,17-hexaazatricyclo[11.3.1.0^3,7]heptadeca-1(16),3,6,13(17),14-pentaene] | ≤ 100 | ≤ 100
Cc1c2c(nn1C1COC1)OCCCNc1nc(ncc1Br)N2 [E66, 14-Bromo-4-methyl-5-(oxetan-3-yl)-8-oxa-2,5,6,12,16,17-hexaazatricyclo[11.3.1.0^3,7]heptadeca-1(16),3,6,13(17),14-pentaene] | ≤ 100 | ≤ 100
Cc1c2c(nn1C1CC(N3CCOCC3)C1)OCC[C@@H](C)Nc1nc(ncc1Cl)N2 (stereo partly drawn) [E106, (11R)-14-chloro-4,11-dimethyl-5-[3-(morpholin-4-yl)cyclobutyl]-8-oxa-2,5,6,12,16,17-hexaazatricyclo[11.3.1.0^3,7]heptadeca-1(16),3,6,13(17),14-pentaene] | ≤ 100 | ≤ 100
